The structures appear in SMILES notation.

Test [1] concerns the target T1, Olfr2 (Mus musculus, UniProt Q9QWU6).
T1 construct: host or cells: HEK cells
Put plainly: OR transcript level by RT-qPCR after in vivo odorant exposure. As to conditions: 5% odorant, 5 hours. The protocol:
(§1) In vivo exposure to odorant: Starting 48 h before experiments, mice were habituated to pure DMSO on a cotton ball. 200 μl were pipetted directly onto the cotton and placed in the cage, replacing any cotton that was already in the cage for nest-making purposes.
(§2) On the day of the experiment, mice receiving odorants were transferred to a different room, where they were exposed to a cotton ball on which 200 μl of odorant diluted in pure DMSO were deposited. Exposures started in the morning between 8 and 10 am (that is two hours after lights were on) and mice were killed and dissected between 1 and 3 pm. […] If a number of different odorants were tested in the same experiment, a different overpressurized room would always be used for each odorant to avoid odor cross-contamination.
(§3) After odorant exposure, mice were killed by cervical dislocation and immediately decapitated. […]
(§4) RNA concentrations were determined using an Amersham Ultrospec® 3100 Pro spectrophotometer, and RNA quality was evaluated with an Agilent Technologies 2100 Bioanalyzer®. […]
(§5) qPCR Ct values were analyzed using an in-house developed Microsoft Excel® macro file. […] Ct values were converted to quantities relative to the maximum for each given gene. Selected reference genes were then analyzed for variance using the geNorm algorithm. […]
A general note: Real-time PCR tracks product formation cycle by cycle.

Test [2] addresses T1, Olfr2. As to conditions: HEK cells; previously shown; read-out: EC50 as agonist of Olfr2; cited from earlier work.
Test [3] has as its system Olfr171. Put plainly: OR transcript level by RT-qPCR after in vivo odorant exposure. As to conditions: 5% odorant for 5 hours, sensory neuroepithelium, n=7 mice. Further details: species or system mouse. As for the experimental part: as §1
(§6) On the day of the experiment, mice receiving odorants were transferred to a different room, where they were exposed to a cotton ball on which 200 μl of odorant diluted in pure DMSO were deposited. Exposures started in the morning between 8 and 10 am (that is two hours after lights were on) and mice were killed and dissected between 1 and 3 pm. […]
as §4, §5
(§7) Adult C57BL/6 mice were exposed to 5% ethyl isobutyrate for 5 hours, and the level of transcripts of odorant receptors' genes were measured by RT-qPCR on extracts of olfactory epithelia from these mice, as described in the materials and methods section.

Test [4] concerns control odorant receptor genes (8 genes). Described as above. Details: species or system mouse. The conditions noted are these: 5% odorant for 5 hours; margin of ±20% relative to control mice not significant. The protocol:
as §1, §6, §4, §5, §7

The target in test [5] is T2, Olfr167 (Mus musculus, UniProt Q8VGJ5).
T2 construct: from tissue; host or cells: main olfactory epithelium of C57BL/6 mice (in vivo exposure) or explanted mouse olfactory epithelia (ex vivo)
T2 sequence (Q8VGJ5 1-312): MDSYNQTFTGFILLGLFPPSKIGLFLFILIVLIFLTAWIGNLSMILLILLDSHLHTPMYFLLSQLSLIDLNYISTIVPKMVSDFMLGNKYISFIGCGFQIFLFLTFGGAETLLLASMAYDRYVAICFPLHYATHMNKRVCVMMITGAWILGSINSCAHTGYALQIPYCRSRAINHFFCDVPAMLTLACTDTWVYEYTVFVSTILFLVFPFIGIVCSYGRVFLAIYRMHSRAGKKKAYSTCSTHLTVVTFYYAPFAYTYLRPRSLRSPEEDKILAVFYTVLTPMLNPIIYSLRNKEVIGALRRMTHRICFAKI
The test is described as above. The conditions noted are these: 5% odorant for 5 hours, sensory neuroepithelium, n=7 mice. The protocol:
as §1, §6, §4, §5, §7

Test [6] has as its system Olfr171-expressing neurons. Put plainly: pS6 immunolabeling with OR in situ hybridization after odorant exposure. The conditions noted are these: 5% odorant, 60 minutes, in vivo. Details: species or system mouse. As for the experimental part:
(§8) In order to independently validate the identity of an acetophenone receptor obtained with the RNAseq approach, the potential colocalization following acetophenone exposure of a neuronal activity marker (the phosphorylated ribosomal protein S6 (pS6) (Knight et al., 2012, Cell, 151, 1126-1137) and specific olfactory receptors were evaluated. To this aim, in-situ hybridizations were performed on sections of olfactory tissue with probes targeting receptor mRNAs followed by immunolabeling of pS6. The probes used were directed against the transcripts of most of the ORs determined as responsive including Olfr983 transcripts (encoding a known acetophenone receptor), Olfr171 transcripts (encoding a known ethyl isobutyrate receptor), and Olfr145 transcripts, encoding a newly identified receptor by RNAseq. Before analysis, mice were exposed to either 5% acetophenone, 5% ethyl isobutyrate, or a negative control condition for 60 minutes. […] 66% (Olfr983) and 70% (Olfr145) of the neurons were positive for pS6 after acetophenone exposure, while only 11% of the neurons expressing Olfr171 were positive for pS6 after exposure to this compound.

Test [7] has as its system neurons expressing Olfr145. The test is described as above. The class given is in vivo, mouse. The conditions noted are these: 5% odorant, 60 minutes, in vivo. As for the experimental part:
as §8

Test [8] has as its system neurons expressing Olfr983. Described as above. The class given is in vivo, mouse. As to conditions: 5% odorant, 60 minutes, in vivo. As for the experimental part: as §8
The target in test [9] is T2, Olfr167. Put plainly: OR transcripts by qPCR after ex vivo exposure of olfactory epithelia. The class given is cell-based. As to conditions: 50 μM, 2 hours, olfactory epithelia in vitro in ACSF medium. The protocol: (§9) In vitro exposure to odorant: The olfactory sensory mucosa of a live or recently dead vertebrate is collected and maintained alive in vitro. Sensory neurons are either left untouched or are dissociated. The exposure to the odorants is then performed in vitro, in a tube, in the liquid phase. The explants/neurons are kept alive in a physiological medium (such as 145 mM NaCl, 5 mM KCl, 1 mM CaCl2, 1 mM MgCl2, 10 mM HEPES, 10 mM glucose). […] The potential modulations of mRNA levels between the two populations are then evaluated, by qPCR (FIG. 2), RNAseq or other techniques, to identify the receptors that have been activated.
(§10) Mouse olfactory epithelia were collected and kept in vitro in ACSF medium where they were exposed for 2 hours to 50 μM ethyl isobutyrate. The number of transcripts for Olfr genes was then evaluated by qPCR, and those of Olfr167 and Olfr171 were both repressed after agonist exposure. Ethyl isobutyrate was previously shown to be an agonist for Olfr167 and Olfr171.

Test [10] concerns Olfr171. The test is described as above. The class given is cell-based, Mouse. The conditions noted are these: 50 μM, 2 hours, olfactory epithelia in vitro in ACSF medium. As for the experimental part:
as §9, §10

Test [11] deals with T2, Olfr167. The conditions noted are these: cited from earlier work.
In test [12] the test system is Olfr171. As to conditions: cited from earlier work.
Test [13] addresses T3, TAAR3 (Mus musculus, UniProt Q5QD16). Put plainly: TAAR transcript level by RT-qPCR after in vivo exposure. The conditions noted are these: olfactory stimulation during 48 hours. The protocol:
as §1, §2
(§11) After odorant exposure, mice were killed by cervical dislocation and immediately decapitated. The main olfactory epithelia (MOE), were harvested in their entirety and transferred to a tube containing 600 μl of lysis buffer and β-mercaptoethanol (RNAeasy kit, Qiagen, following the manufacturer protocol) and a 0.5 cm diameter steel ball, and then put on ice. Samples were then homogenized using a FastPrep®-24 instrument (MP Biomedicals) at 6 m/s for 30 s and left on ice. […]
as §4, §5
(§12) Transcript levels of olfactory receptor gene were evaluated following olfactory stimulation during 48 hours by beta-phenylethylamine. Olfactory receptor gene transcript levels were evaluated by RT-qPCR for each receptor gene, and the ratios between the values obtained in exposed versus control mice are shown in FIG. 6. […]

Test [14] addresses T4, TAAR4 (Mus musculus, UniProt Q5QD15).
T4 construct: from tissue; host or cells: main olfactory epithelium of living mice
Described as above. The conditions noted are these: olfactory stimulation during 48 hours. As for the experimental part: as §1, §2, §11, §4, §5, §12

For test [15], the target named is T5, TAAR6 (Mus musculus, UniProt Q5QD13).
T5 construct: from tissue; host or cells: main olfactory epithelium of living mice
The description is as above. As to conditions: olfactory stimulation during 48 hours. The protocol:
as §1, §2, §11, §4, §5, §12

The target of test [16] is T3, TAAR3. The conditions noted are these: Zhang et al, 2013; cited from earlier work.
Test [17] addresses T4, TAAR4. The conditions noted are these: Zhang et al, 2013; cited from earlier work.
In test [18] the target is T6, Olfr556 (Mus musculus, UniProt B2RRG2).
T6 sequence (B2RRG2 1-324): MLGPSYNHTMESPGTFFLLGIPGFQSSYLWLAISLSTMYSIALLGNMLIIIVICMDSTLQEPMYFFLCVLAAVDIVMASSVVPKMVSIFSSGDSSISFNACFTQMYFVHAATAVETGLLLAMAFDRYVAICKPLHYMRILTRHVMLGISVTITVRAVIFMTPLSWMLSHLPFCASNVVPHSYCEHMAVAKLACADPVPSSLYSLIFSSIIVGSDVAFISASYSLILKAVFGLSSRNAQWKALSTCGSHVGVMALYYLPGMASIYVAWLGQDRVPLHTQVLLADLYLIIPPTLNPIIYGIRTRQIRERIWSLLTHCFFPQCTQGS
Put plainly: OR transcript level by RT-qPCR after in vivo odorant exposure. Details: from tissue; host or cells: main olfactory epithelium of exposed mice. As to conditions: olfactory stimulation during 48 hours, RT-qPCR. As for the experimental part:
as §1
On the day of the experiment, mice receiving odorants were transferred to a different room, where they were exposed to a cotton ball on which 200 μl of odorant diluted in pure DMSO were deposited. […] […] If a number of different odorants were tested in the same experiment, a different overpressurized room would always be used for each odorant to avoid odor cross-contamination.
After odorant exposure, mice were killed by cervical dislocation and immediately decapitated. The main olfactory epithelia (MOE), were harvested in their entirety and transferred to a tube containing 600 μl of lysis buffer and β-mercaptoethanol (RNAeasy kit, Qiagen, following the manufacturer protocol) and a 0.5 cm diameter steel ball, and then put on ice. Samples were then homogenized using a FastPrep®-24 instrument (MP Biomedicals) at 6 m/s for 30 s and left on ice. RNA extraction was performed on all samples in parallel using the Qiagen RNeasy Mini® kit following the manufacturer's instructions. Two DNase treatments were performed on all samples: first using the Qiagen RNase-Free DNase Set® and then using the Life Technologies Ambion DNase I® kit. RNA samples were then aliquoted and stored at −80° C.
RNA concentrations were determined using an Amersham Ultrospec® 3100 Pro spectrophotometer, and RNA quality was evaluated with an Agilent Technologies 2100 Bioanalyzer®. Each reverse transcription was performed with 0.5 μg RNA using the Takara Primescript® kit, in a final volume of 10 μl. Primers for reverse transcription were equal mixtures of poly-T nucleotides and random hexamers. Negative controls (omitting the reverse transcriptase enzyme) were performed for each sample. 1/14th of the cDNA preparation was used for each triplicated qPCR reaction.
qPCR Ct values were analyzed using an in-house developed Microsoft Excel® macro file. Triplicate values were compared and outliers (values with a difference higher than 0.5 Ct to their nearest neighbor) were discarded. The number of conditions with an outlying value was always less than 10% of the total number of conditions. Ct values were converted to quantities relative to the maximum for each given gene. Selected reference genes were then analyzed for variance using the geNorm algorithm. All values were normalized with the olfactory tissue-specific genes Omp and Adcy3. β-Actin was used as a non-tissue-specific reference gene to control for differences in dissection between samples. […]

Test [19] deals with Olfr609. The description is as above. Details: species or system mouse. As to conditions: 5% odorant, 5 hours. The protocol:
as §1, §2, §3, §4, §5

Test [20] has as its system Olfr609. As to conditions: HEK cells; previously shown; read-out: EC50 as agonist of Olfr609; cited from earlier work.
The target in test [21] is T7, Olfr16 (Mus musculus, UniProt Q62007). Further details: host or cells: dissociated neurons. The conditions noted are these: dissociated neurons; previously shown; read-out: EC50 as agonist of Olfr16; cited from earlier work.
Test [22] concerns the target T7, Olfr16. Put plainly: OR transcript level by RT-qPCR after in vivo odorant exposure. Details: from tissue; host or cells: main olfactory epithelium of exposed mice. The conditions noted are these: 5% odorant, 5 hours. As for the experimental part: as §1, §2, §3, §4, §5

T1 sequence (Q9QWU6 1-327): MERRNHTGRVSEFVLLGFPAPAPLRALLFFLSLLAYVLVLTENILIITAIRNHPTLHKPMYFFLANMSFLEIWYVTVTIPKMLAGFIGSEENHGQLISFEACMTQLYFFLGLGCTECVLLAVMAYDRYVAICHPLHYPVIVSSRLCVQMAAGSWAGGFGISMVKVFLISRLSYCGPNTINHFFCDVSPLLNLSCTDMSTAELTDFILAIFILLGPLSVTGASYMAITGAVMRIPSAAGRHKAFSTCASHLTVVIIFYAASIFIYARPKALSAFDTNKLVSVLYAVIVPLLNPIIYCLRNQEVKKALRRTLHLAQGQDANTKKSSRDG
T3 sequence (Q5QD16 whole entry): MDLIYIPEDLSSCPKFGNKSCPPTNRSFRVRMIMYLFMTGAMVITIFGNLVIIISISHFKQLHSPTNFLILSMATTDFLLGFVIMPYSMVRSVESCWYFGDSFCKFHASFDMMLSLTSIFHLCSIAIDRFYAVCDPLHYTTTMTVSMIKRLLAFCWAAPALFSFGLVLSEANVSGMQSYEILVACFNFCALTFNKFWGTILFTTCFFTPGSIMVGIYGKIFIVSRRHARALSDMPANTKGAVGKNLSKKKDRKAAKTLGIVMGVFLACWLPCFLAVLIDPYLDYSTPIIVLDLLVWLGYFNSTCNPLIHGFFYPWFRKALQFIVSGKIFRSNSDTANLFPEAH
T4 sequence (Q5QD15 whole entry): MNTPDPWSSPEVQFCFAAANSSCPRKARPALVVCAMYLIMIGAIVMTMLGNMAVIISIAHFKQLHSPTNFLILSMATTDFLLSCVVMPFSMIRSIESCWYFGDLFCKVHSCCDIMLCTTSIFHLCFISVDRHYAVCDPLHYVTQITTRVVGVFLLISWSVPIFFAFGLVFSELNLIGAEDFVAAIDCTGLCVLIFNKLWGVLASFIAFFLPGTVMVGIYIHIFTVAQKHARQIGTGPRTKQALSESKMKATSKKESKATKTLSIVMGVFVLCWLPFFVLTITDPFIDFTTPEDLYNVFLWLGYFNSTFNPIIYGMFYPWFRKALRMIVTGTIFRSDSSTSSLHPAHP
T7 sequence (Q62007 whole entry): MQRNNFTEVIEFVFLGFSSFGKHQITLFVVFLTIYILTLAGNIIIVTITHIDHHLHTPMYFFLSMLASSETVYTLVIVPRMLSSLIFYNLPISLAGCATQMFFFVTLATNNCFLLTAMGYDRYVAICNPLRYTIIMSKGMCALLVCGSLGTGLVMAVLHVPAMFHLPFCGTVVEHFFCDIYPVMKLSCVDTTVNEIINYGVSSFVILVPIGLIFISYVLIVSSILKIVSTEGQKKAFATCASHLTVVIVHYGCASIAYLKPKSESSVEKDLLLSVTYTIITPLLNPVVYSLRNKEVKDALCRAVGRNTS
T5 sequence (Q5QD13 whole entry): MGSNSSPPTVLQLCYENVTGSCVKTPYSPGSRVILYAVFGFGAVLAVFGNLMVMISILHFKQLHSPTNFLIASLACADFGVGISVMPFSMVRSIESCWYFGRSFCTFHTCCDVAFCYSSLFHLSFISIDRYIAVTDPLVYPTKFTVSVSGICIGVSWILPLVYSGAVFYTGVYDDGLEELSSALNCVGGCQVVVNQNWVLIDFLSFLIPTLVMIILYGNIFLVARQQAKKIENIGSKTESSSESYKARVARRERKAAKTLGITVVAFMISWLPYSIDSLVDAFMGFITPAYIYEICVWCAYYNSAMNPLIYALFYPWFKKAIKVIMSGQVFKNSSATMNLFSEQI

Take `CCCCCCC=O` [heptanal]: the “Olfr2 mRNA level relative to unexposed controls” value in test [1] is “decrease”. In addition, in test [2], the EC50 is under 50 µM.
Regarding `CCOC(=O)C(C)C` [ethyl isobutyrate], the “mRNA concentration of Olfr171, decreased, relative to unexposed controls” value in test [3] is 74%. In addition, in [4], the “concentration of control odorant receptor gene transcripts” value is “none of the control odorant receptor genes (8 genes) was significantly affected”. In test [5], the “mRNA concentration of Olfr167, decreased, relative to unexposed controls” value was determined as 47%. Further, in test [6], the “fraction of Olfr171-expressing neurons positive for pS6” value worked out at 67%. In test [7], the “fraction of Olfr145-expressing neurons positive for pS6” value was determined as 28%. Further, the “fraction of Olfr983-expressing neurons positive for pS6” value in [8] was 12%. The “number of Olfr167 transcripts after agonist exposure” value in [9] was “repressed”. For the same compound, the “number of Olfr171 transcripts after agonist exposure” value in test [10] was “repressed”. Also, in test [11], the “action on Olfr167 previously shown” value was “agonist”. The “action on Olfr171 previously shown” value in [12] is recorded as “agonist”.
Regarding `NCCc1ccccc1` [beta-phenylethylamine], the “number of transcripts encoding TAAR3” value in test [13] was “decrease”. Besides, the “number of transcripts encoding TAAR4” value in test [14] is listed as “decrease”. Besides, the “TAAR6 transcript level (negative control)” value in test [15] is given as “not affected”. The “TAAR3 response previously shown” value in test [16] is listed as “respond”. The “TAAR4 response previously shown” value in test [17] is “respond”. Besides, in test [18], the “Olfr556 transcript level (negative control)” value is recorded as “not affected”.
As to `COc1cc(C(=O)O)ccc1O` [vanillic acid], the “Olfr609 mRNA level relative to unexposed controls” value in test [19] is on record as “decrease”. For the same compound, the EC50 in [20] is under 50 µM.
Consider `CC(C)(O)CCCC1=CCC(C=O)CC1` (stereo not shown) [lyral], for which the EC50 in test [21] is under 50 µM. Besides, the “Olfr16 mRNA level relative to unexposed controls” value in test [22] is “decrease”.

A word on the EC50: it is the concentration that produces a half-maximal response.
